Laboratory results: ChEMBL document CHEMBL5724914, “Linking interpersonal differences in gut microbiota composition and drug biotransformation activity” (2024)

Legend:
[1] = The drug is tested on Z-022 corresponding to mouse gut metagenome with ENA study accession number: PRJEB37062 and ENA sample accession number: ERS12561821 for biotransformation under anaerobic condition. The drug concentrations were measured over 9 timepoints collected between 0 and 24 hours of incubation by liquid-chromatography-coupled mass spectrometry (LC–MS); settings: 2 µM
[2] = human gut metagenome, 24 h, 2 µM
[3] = human gut metagenome, 24 h, 2 µM; remark: listed apart in the source
[4] = The drug is tested on WLS-039 corresponding to human gut metagenome with ENA study accession number: PRJEB37062 and ENA sample accession number: ERS12561746 for biotransformation under anaerobic condition. The drug concentrations were measured over 9 timepoints collected between 0 and 24 hours of incubation by liquid-chromatography-coupled mass spectrometry (LC–MS); settings: 2 µM
[5] = human gut metagenome, 24 h, 2 µM; remark: listed apart in the source
[6] = The drug is tested on Z-018 corresponding to pig gut metagenome with ENA study accession number: PRJEB37062 and ENA sample accession number: ERS12561817 for biotransformation under anaerobic condition. The drug concentrations were measured over 9 timepoints collected between 0 and 24 hours of incubation by liquid-chromatography-coupled mass spectrometry (LC–MS); settings: 2 µM
[7] = human gut metagenome, 24 h, 2 µM; remark: listed apart in the source
[8] = human gut metagenome, 24 h, 2 µM; remark: listed apart in the source
[9] = The drug is tested on Z-020 corresponding to rabbit gut metagenome with ENA study accession number: PRJEB37062 and ENA sample accession number: ERS12561819 for biotransformation under anaerobic condition. The drug concentrations were measured over 9 timepoints collected between 0 and 24 hours of incubation by liquid-chromatography-coupled mass spectrometry (LC–MS); settings: 2 µM
[10] = The drug is tested on WLS-069 corresponding to human gut metagenome with ENA study accession number: PRJEB37062 and ENA sample accession number: ERS12561748 for biotransformation under anaerobic condition. The drug concentrations were measured over 9 timepoints collected between 0 and 24 hours of incubation by liquid-chromatography-coupled mass spectrometry (LC–MS); settings: 2 µM
[11] = The drug is tested on WLS-073 corresponding to human gut metagenome with ENA study accession number: PRJEB37062 and ENA sample accession number: ERS12561749 for biotransformation under anaerobic condition. The drug concentrations were measured over 9 timepoints collected between 0 and 24 hours of incubation by liquid-chromatography-coupled mass spectrometry (LC–MS); settings: 2 µM
[12] = The drug is tested on WLS-310 corresponding to human gut metagenome with ENA study accession number: PRJEB37062 and ENA sample accession number: ERS12561785 for biotransformation under anaerobic condition. The drug concentrations were measured over 9 timepoints collected between 0 and 24 hours of incubation by liquid-chromatography-coupled mass spectrometry (LC–MS); settings: 2 µM
[13] = The drug is tested on WLS-006 corresponding to human gut metagenome with ENA study accession number: PRJEB37062 and ENA sample accession number: ERS12561741 for biotransformation under anaerobic condition. The drug concentrations were measured over 9 timepoints collected between 0 and 24 hours of incubation by liquid-chromatography-coupled mass spectrometry (LC–MS); settings: 2 µM
[14] = The drug is tested on WLS-038 corresponding to human gut metagenome with ENA study accession number: PRJEB37062 and ENA sample accession number: ERS12561745 for biotransformation under anaerobic condition. The drug concentrations were measured over 9 timepoints collected between 0 and 24 hours of incubation by liquid-chromatography-coupled mass spectrometry (LC–MS); settings: 2 µM
[15] = The drug is tested on Z-008 corresponding to metagenome with ENA study accession number: PRJEB37062 and ENA sample accession number: ERS12561808 for biotransformation under anaerobic condition. The drug concentrations were measured over 9 timepoints collected between 0 and 24 hours of incubation by liquid-chromatography-coupled mass spectrometry (LC–MS); settings: 2 µM
[16] = The drug is tested on WLS-098 corresponding to human gut metagenome with ENA study accession number: PRJEB37062 and ENA sample accession number: ERS12561754 for biotransformation under anaerobic condition. The drug concentrations were measured over 9 timepoints collected between 0 and 24 hours of incubation by liquid-chromatography-coupled mass spectrometry (LC–MS); settings: 2 µM
[17] = The drug is tested on Z-028 corresponding to mouse gut metagenome with ENA study accession number: PRJEB37062 and ENA sample accession number: ERS12561827 for biotransformation under anaerobic condition. The drug concentrations were measured over 9 timepoints collected between 0 and 24 hours of incubation by liquid-chromatography-coupled mass spectrometry (LC–MS); settings: 2 µM
[18] = The drug is tested on Z-029 corresponding to rat gut metagenome with ENA study accession number: PRJEB37062 and ENA sample accession number: ERS12561828 for biotransformation under anaerobic condition. The drug concentrations were measured over 9 timepoints collected between 0 and 24 hours of incubation by liquid-chromatography-coupled mass spectrometry (LC–MS); settings: 2 µM
[19] = human gut metagenome, 24 h, 2 µM; remark: listed apart in the source
[20] = The drug is tested on Z-019 corresponding to rat gut metagenome with ENA study accession number: PRJEB37062 and ENA sample accession number: ERS12561818 for biotransformation under anaerobic condition. The drug concentrations were measured over 9 timepoints collected between 0 and 24 hours of incubation by liquid-chromatography-coupled mass spectrometry (LC–MS); settings: 2 µM
Further: call rule not given here.

Row | SMILES | Bacterial Biotransformation [1] | Bacterial Biotransformation [2] | Bacterial Biotransformation [3] | Bacterial Biotransformation [4] | Bacterial Biotransformation [5] | Bacterial Biotransformation [6] | Bacterial Biotransformation [7] | Bacterial Biotransformation [8] | Bacterial Biotransformation [9] | Bacterial Biotransformation [10] | Bacterial Biotransformation [11] | Bacterial Biotransformation [12] | Bacterial Biotransformation [13] | Bacterial Biotransformation [14] | Bacterial Biotransformation [15] | Bacterial Biotransformation [16] | Bacterial Biotransformation [17] | Bacterial Biotransformation [18] | Bacterial Biotransformation [19] | Bacterial Biotransformation [20]
1 | CCCN(CCC)CCc1cccc2c1CC(=O)N2 [ROPINIROLE] | Compound NOT metabolized | Compound metabolized | Compound NOT metabolized | Compound NOT metabolized | Compound NOT metabolized | Compound metabolized | Compound NOT metabolized | Compound NOT metabolized | Compound metabolized | Compound NOT metabolized | Compound NOT metabolized | Compound NOT metabolized | Compound NOT metabolized | Compound NOT metabolized | Compound NOT metabolized | Compound metabolized | Compound NOT metabolized | Compound NOT metabolized | Compound NOT metabolized | Compound NOT metabolized
2 | O=C(O)CCC(=O)O.O=C(O[C@H]1CN2CCC1CC2)N1CCc2ccccc2[C@@H]1c1ccccc1 [SOLIFENACIN SUCCINATE] | Compound metabolized | Compound NOT metabolized | Compound NOT metabolized | Compound metabolized | Compound metabolized | Compound metabolized | Compound metabolized | Compound NOT metabolized | Compound metabolized | Compound metabolized | Compound metabolized | Compound NOT metabolized | Compound metabolized | Compound metabolized | Compound NOT metabolized | Compound metabolized | Compound NOT metabolized | Compound NOT metabolized | Compound NOT metabolized | Compound NOT metabolized
3 | O=C(CCCN1CCC2(CC1)C(=O)NCN2c1ccccc1)c1ccc(F)cc1 [SPIPERONE] | Compound NOT metabolized | Compound metabolized | Compound NOT metabolized | Compound NOT metabolized | Compound NOT metabolized | Compound NOT metabolized | Compound NOT metabolized | Compound NOT metabolized | Compound NOT metabolized | Compound metabolized | Compound NOT metabolized | Compound metabolized | Compound metabolized | Compound NOT metabolized | Compound NOT metabolized | Compound metabolized | Compound NOT metabolized | Compound NOT metabolized | Compound metabolized | Compound NOT metabolized
4 | O=C1C(CC[S+]([O-])c2ccccc2)C(=O)N(c2ccccc2)N1c1ccccc1 (stereo not given) [SULFINPYRAZONE] | Compound NOT metabolized | Compound metabolized | Compound metabolized | Compound metabolized | Compound metabolized | Compound metabolized | Compound metabolized | Compound metabolized | Compound NOT metabolized | Compound metabolized | Compound metabolized | Compound metabolized | Compound metabolized | Compound metabolized | Compound metabolized | Compound metabolized | Compound metabolized | Compound NOT metabolized | Compound metabolized | Compound NOT metabolized
5 | CCOc1ccccc1OCCN[C@H](C)Cc1ccc(OC)c(S(N)(=O)=O)c1.Cl [TAMSULOSIN HYDROCHLORIDE] | Compound NOT metabolized | Compound metabolized | Compound NOT metabolized | Compound NOT metabolized | Compound NOT metabolized | Compound NOT metabolized | Compound NOT metabolized | Compound NOT metabolized | Compound NOT metabolized | Compound NOT metabolized | Compound NOT metabolized | Compound NOT metabolized | Compound metabolized | Compound NOT metabolized | Compound NOT metabolized | Compound metabolized | Compound NOT metabolized | Compound NOT metabolized | Compound NOT metabolized | Compound NOT metabolized
